Measured values from patent US20260098019A1, “SYNTHESIS OF NSAID CONJUGATES AS ANTI-INFLAMMATORY AGENTS USING THE MOLECULAR HYBRIDIZATION” (AUGUSTA UNIVERSITY RESEARCH INSTITUTE, INC., priority 2022, published 2026).
Like-named read-outs stand apart in the source and are kept apart here. Marks after values point to notes of the source that are not given here.

How the values were obtained:
toxicological bioassay = conditions: 50 mg/kg indomethacin mol equivalent (5 folds of anti-inflammatory dose); 24 h post-administration
Description: Albino mice weighing 20-25 g were divided into 6 groups of 6 mice each. […] The toxic symptoms and mortality rates were recorded 24 h post-administration in each group.
Five times of the anti-inflammatory dose was orally administrated.

hot plate latency = experiment: hot plate test (central analgesic); format: in vivo, albino mice; conditions: for Latency period ± SE: 10 mg/kg indomethacin mol equivalent i.p., cutoff 15 seconds; for % Protection: vs control; for Potency: at 120 min. compared to indomethacin; for Observed property: % Protection central analgesic (120 min)
Description: An in vivo standard hot plate test was performed. […] The control group animals were given sterile/distilled water with few drops of Tween 80. The maximum cutoff time was 15 seconds to prevent tissue damage. Response latencies were measured at 30, 60, 90 and 120 inns. The % protection was calculated by equ. (5), where, Ti, To are the latency time mean of the tested compound and control group respectively (Table 3).

gastric mucosa [1] = conditions: mouse, in vivo
Description: (§2) The ulcerogenic liability of conjugates was determined in albino mice following a standard method. Animals of either sex (pregnant females were excluded) weighing 20-25 g were divided into 8 groups of 6 animals each. The animals fasted 18 h before drug administration. […] The control group animals were given water with a few drops of Tween 80. The animals were sacrificed by cervical dislocation and the stomach was removed, opened along the greater curvature, and rinsed with saline. The gastric mucosa was examined with a magnifying lens (10×) for the presence of lesions and erosions. The ulcer index was calculated (Table 4) and the degree of ulcerogenic effect was expressed in terms of: (1) the percentage incidence of ulcers divided by 10; (2) average number of ulcers per stomach; and (3) average severity of ulcers. The ulcer index is the value that resulted from the sum of the above three values.

COX-1 = COX-1 (UniProt P05979); format: biochemical, human; conditions: ± SD
Text: (§1) Rev. […] Thromb. Vasc. […] Rev. […] Rev. […] Rev. Oncol. Hematol. […] Curr. Pharm. Des. […] Luong, et al., Nat. Struct. […] A. and Marnett, L. J., Chem. Rev. […] Drug Discov. […] Biomol.

[2] = tested on: acetic acid-induced writhing; experiment: acetic acid-induced writhing test (peripheral analgesic); format: in vivo, albino mice; conditions: for Potency: % inhibition/protection compared to indomethacin; for 1/(observed property): 1/(% inhibition) peripheral analgesic; for Observed property: % inhibition/protection peripheral analgesic
Description: Peripheral analgesic activity was measured by the standard acetic acid-induced writhing test in mice. […] One hour after the i.p. administration, each mouse was injected with 0.1 ml of 1% acetic acid solution i.p. The control group animals were given sterile/distilled water with few drops of Tween 80. Starting 5 min after the acetic acid injection, the number of muscular contractions in each mouse was counted for 30 min. A significant reduction in the number of writhing by a conjugate compared with control animals was considered as a positive analgesic response. Percentage protection was calculated according to equ. (3), where n is the average number of writhing in the control group and n′ is the average number of writhing in the treated group. The % potency was calculated by equ. (4) (Table 2).

COX-2 = biological target: T1, COX-2 (Homo sapiens, UniProt P35354); experiment: Inhibition of COX-2; format: biochemical; conditions: for SI: SI=IC50 (COX-1)/IC50 (COX-2); for IC50: ± SD
T1 construct: purchased BioVision Incorporated K547-100 and K548-100 (for COX-1/2)
T1 sequence (P35354 18-604): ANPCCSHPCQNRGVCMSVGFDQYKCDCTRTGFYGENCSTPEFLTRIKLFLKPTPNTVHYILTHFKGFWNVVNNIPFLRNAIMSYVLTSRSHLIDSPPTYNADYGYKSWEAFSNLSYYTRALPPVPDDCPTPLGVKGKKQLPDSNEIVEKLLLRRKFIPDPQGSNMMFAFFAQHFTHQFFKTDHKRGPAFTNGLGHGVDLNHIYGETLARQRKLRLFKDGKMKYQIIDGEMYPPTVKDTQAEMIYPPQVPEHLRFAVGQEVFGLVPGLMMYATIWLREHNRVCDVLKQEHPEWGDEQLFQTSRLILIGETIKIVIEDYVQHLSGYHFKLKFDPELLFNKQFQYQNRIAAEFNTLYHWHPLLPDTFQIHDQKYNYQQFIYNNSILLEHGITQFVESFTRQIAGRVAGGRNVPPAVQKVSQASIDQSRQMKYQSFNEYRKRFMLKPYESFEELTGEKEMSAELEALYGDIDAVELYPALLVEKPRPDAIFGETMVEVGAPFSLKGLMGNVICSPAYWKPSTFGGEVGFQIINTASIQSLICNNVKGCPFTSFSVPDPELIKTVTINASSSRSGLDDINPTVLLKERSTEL
Text: as §1

gastric mucosa [3] = experiment: ulcerogenic liability; conditions: for ulcers or erosions to the gastric / ulcerogenic liability (in words): mice; for ulcers or erosions to the gastric / ulcerogenic liability (in words) / % Incidence of ulcer divided by 10 / Average of ulcer number / Average severity of ulcer / Number of animals with ulcer: oral; for % Incidence of ulcer divided by 10 / Average of ulcer number / Average severity of ulcer / Number of animals with ulcer: three successive days, 10 mg/kg indomethacin mol equivalent; for Number of animals with ulcer: 6 animals; for Ulcer index: sum of the three values
Description: as §2

RAW264.7 macrophages = experiment: cell viability, MTT assay; format: cell-based; conditions: LPS-stimulated cells treated, FIG. 2B
Description: To ensure that the inflammatory response is not due to cell toxicity, cell viability measurements were done using MTT colorimetric assay. On the same cell cultured 96-well plate from the previous experiment, 100 μL of 1 mg/mL MTT solution was added to the adherent RAW264.7 macrophages cells at 37° C. and incubated for 2 h. After that, 100 μL of DMSO was added to the wells to dissolve insoluble formazan crystals. Absorbance was measured spectrophotometrically at 540 nm using a NanoSPECTROstar microplate reader (BMG LABTECH, Germany). Cell viability was then calculated as a percentage of untreated control.
Cytotoxicity of the macrophages was evaluated using MTT assay.

[4] = tested on: LPS-stimulated RAW264.7 macrophages; experiment: NO production (nitrite, Griess method) in LPS-stimulated RAW264.7; format: cell-based; conditions: LPS 10 ng/mL
Description: The Griess method was used to determine the nitrite concentration in cell culture medium. […] The next day, a volume of 150 μL of the cell supernatant was transferred to a new 96-well plate and 130 μL of deionized water was added on top of it. Lastly, a volume of 20 μL of Griess reagent was added to the cell supernatant and incubated for 30 min in the dark at room temperature. Griess reagent was prepared according to instructions: 1:1 ratio of N-1-naphthyl-ethylenediamine (0.1%) and phosphoric acid (5%) in sulphanilamide (1%) in distilled water. […] The concentration of nitrite was determined using a NaNO2 standard curve.
The nitrite production in the supernatant in the culture medium was measured using Greiss reaction.

Sequence of COX-1 (P05979 whole entry): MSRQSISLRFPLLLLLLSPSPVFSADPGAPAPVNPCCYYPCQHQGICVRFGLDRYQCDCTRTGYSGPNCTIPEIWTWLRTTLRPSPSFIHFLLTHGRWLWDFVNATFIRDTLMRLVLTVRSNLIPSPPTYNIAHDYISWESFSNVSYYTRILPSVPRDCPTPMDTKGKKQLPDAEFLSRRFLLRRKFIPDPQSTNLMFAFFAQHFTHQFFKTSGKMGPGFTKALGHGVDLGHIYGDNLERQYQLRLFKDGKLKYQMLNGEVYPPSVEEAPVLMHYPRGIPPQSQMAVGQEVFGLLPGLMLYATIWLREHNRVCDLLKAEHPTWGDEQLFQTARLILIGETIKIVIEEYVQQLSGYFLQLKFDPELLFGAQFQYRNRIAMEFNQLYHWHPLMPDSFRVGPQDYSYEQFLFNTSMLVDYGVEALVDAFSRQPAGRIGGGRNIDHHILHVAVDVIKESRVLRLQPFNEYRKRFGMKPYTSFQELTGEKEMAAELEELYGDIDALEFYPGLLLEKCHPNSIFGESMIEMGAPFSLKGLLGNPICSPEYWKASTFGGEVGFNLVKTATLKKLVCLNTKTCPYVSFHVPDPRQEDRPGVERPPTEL

| Compound | % Protection (hot plate latency; After 30 min.) | % Protection (hot plate latency; After 60 min.) | % Protection (hot plate latency; After 90 min.) | % Protection (hot plate latency; After 120 min.) | Potency (hot plate latency) | IC50 (COX-1) | Potency [2] | SI (COX-2) | IC50 (COX-2) | Observed property (hot plate latency) | ulcers or erosions to the gastric / ulcerogenic liability (in words) (gastric mucosa [3]) | % Incidence of ulcer divided by 10 (gastric mucosa [3]) | Average of ulcer number (gastric mucosa [3]) | Average severity of ulcer (gastric mucosa [3]) | Number of animals with ulcer (gastric mucosa [3]) | Ulcer index (gastric mucosa [3]) | 1/(observed property) [2] | Observed property [2] | also measured |
| --- | --- | --- | --- | --- | --- | --- | --- | --- | --- | --- | --- | --- | --- | --- | --- | --- | --- | --- | --- |
| C#CCOC(=O)C(C)c1ccc(CC(C)C)cc1 (stereo not shown) [Compound 3, prop-2-yn-1-yl 2-(4-isobutylphenyl) propanoate] | (55.2) % | 2.1** (48.3) % | (19.2) % | (14.9) % | 26.4% | 19.4 ± 0.55 µM | 100.0% | 2.262 | 8.6 ± 0.24 µM | – | – | – | – | – | – | – | – | – | toxic symptoms and mortality (toxicological bioassay): No toxic symptoms or mortality; Latency period ± SE (hot plate latency; After 30 min.): 10.37 s; Latency period ± SE (hot plate latency; After 60 min.): 10.78 s; Latency period ± SE (hot plate latency; After 90 min.): 10.62 ± 2.2 s; Latency period ± SE (hot plate latency; After 120 min.): 10.35 ± 1.7 s; Ulcer index (gastric mucosa [1]): 4.33; % Incidence of ulcer divided by 10 (gastric mucosa [1]; po, 10 mg/kg): 3.33; Average of ulcer number (gastric mucosa [1]; po, 10 mg/kg): 0.33; Average severity of ulcer (gastric mucosa [1]; po, 10 mg/kg): 0.67; Number of animals with ulcer (gastric mucosa [1]; po, 10 mg/kg): 2/6; Writing reflex ± SE ([2]; number of writhing counted for 30 min, 10 mg/kg indomethacin mol equivalent i.p.): 11.3 ± 0.9; % Inhibition/protection ([2]; vs control, 10 mg/kg indomethacin mol equivalent i.p.): 71.8% |
| Cc1ccc(-n2cc(COC(=O)C(C)c3ccc(CC(C)C)cc3)nn2)cc1 (stereo not shown) [Compound 5d, (1-(p-Tolyl)-1H-1,2,3-triazol-4-yl)methyl 2-(4-isobutylphenyl)propanoate] | – | – | – | – | – | 9.64 ± 0.27 µM | – | 2.158 | 4.47 ± 0.13 µM | 1.2 | none and No ulcerogenic liability | 0 | 0 | 0 | 0 | 0 | 0.01212 | 82.5 | – |
| COc1ccc2c(c1)c(CC(=O)O)c(C)n2C(=O)c1ccc(Cl)cc1 [Indo, indomethacin, reference compound] | (87.1) % | 1.6** (80.9) % | (57.9) % | (56.5) % | 100% | – | 100.0% | – | – | – | – | 10 | 2 | 1.67 | 6/6 | – | – | – | cytotoxicity (MTT) in comparison to control (RAW264.7 macrophages): no significant cytotoxicity; Potency ([2]; listed as indomethacin): 100% |
| COc1ccccc1-n1cc(COC(=O)C(C)c2ccc(CC(C)C)cc2)nn1 (stereo not shown) [Compound 5e, (1-(2-Methoxyphenyl)-1H-1,2,3-triazol-4-yl)methyl 2-(4-isobutylphenyl)propanoate] | – | – | – | – | – | 5.42 µM | – | 0.387 | 14 ± 0.4 µM | 28 | none and No ulcerogenic liability | 0 | 0 | 0 | 0 | 0 | 0.0158 | 63.3 | decrease in NO production in comparison to LPS-stimulated cells (in words) [4]: insignificant decrease |
